Experimental data: patent US4657924A, “Nafazatrom as a lipoxygenase inhibitor” (priority 1983, dated 1987)

Key:
5-lipoxygenase = 5-lipoxygenase inhibition; type: biochemical; details: selectively, versus 15- and 12-lipoxygenase
12-lipoxygenase = 12-lipoxygenase inhibition; type: biochemical; details: these concentrations (>10 μg/ml)
[1] = system: disorders in cardiac rhythm following coronary ligature; test: Coronary artery ligation in rats: disorders in cardiac rhythm; type: in vivo, rat (Wistar); details: for Duration of VF (seconds), early / Duration of VT (seconds), early / Extrasystoles %, early: 0-10 minutes; for Duration of VF (seconds), late / Duration of VT (seconds), late / Extrasystoles %, late: 2-4 hours
Excerpt: Ligation of the left coronary artery of the rat heart and the disorders in cardiac rhythm which thereby occur form a relatively simple model for investigating substances having antiarrhythmic actions and effects on the developing myocardial ischaemia (Clark et al., J. Pharmacol. Meth. 3, 357, 1980). The effects of nafazatrom on antiarrhythmic and antiischaemic properties in conscious rats was investigated in this model. Particular importance was placed on the severity and quantity of disorders in cardiac rhythm which occurred.
Male Wistar rats (250-350 g) were superficially anaesthetized with ether and investigated for rhythm disorders. Animals with rhythm abnormalities before the start of the experiment were excluded. In acute surgery, the animals were again anaesthetized with ether. In the lateral dorsal position, the thorax was opened somewhat to the left alongside the central line and the heart was exteriorized. Close below the left heart auricle, a silk ligature (3-0) was looped through the muscle of the left heart under the anterior coronary artery. Animals which developed rhythm disorders during this procedure were excluded. The left coronary artery was ligatured by the method described by Selye et al. (Angiology 11, 398, 1960), the heart was returned to the thorax and the wound was rapidly closed with thread. Since the thorax had not been opened for longer than about 45 seconds, artificial respiration of the animals was unnecessary. The operation mortality was between 25 and 40% within the first hours, and in particular myocardial haemorrhages, rhythm disorders with ventricular fibrillation, and massive cardiac infractions occurred. In a sham-operatedgroup, the same experimental conditions were investigated, with the exception that the coronary artery remained open. Shortly after the ligature had been made, early rhythm disorders were observed, which were accompanied in some cases (untreated) with ventricular fibrillations. In most cases, this ventricular fibrillation spontaneously turned into uniform sinus rhythm of heart contraction. The disorders in cardiac rhythm were evaluated by the plan described by Clark (see above). Ventricular tachycardia was defined as the result of more than 10 successive rhythm disorders with extrasystoles. Electrocardiographic changes included a rise in the ST segment, a drop in the Q waves and a rise in the QT interval. The total number of ectopic activity in each individual animal was determined by counting the ventricular extrasystoles, including tachycardia and fibrillations.
Three groups were investigated: group I received the diluent (1% strength aqueous Tylose suspension, that is to say methylhydroxyethyl-cellulose) twice daily perorally (0.5 ml/kg) for 10 days and by the same administration and in the same amount, after coronary ligature, for a further 20 days; group II was pretreated with the diluent for 10 days (0.5 ml/kg) and was treated with 30 or 100 mg/kg of nafazatrom (in each case suspended in 0.5 ml/kg of 1% strength Tylose suspension) twice daily perorally for 20 days, after coronary ligature (the first nafazatrom administration was effected immediately after the coronary ligature); group III received the above oral doses of nafazatrom in the course of 10 days before the ligature, and the diluent Tylose suspension for 10 days after the coronary occlusion had been effected. The sham-operated animals remained untreated. The peripheral ECG in the extremities was determined in lead II, and in particular, as a control before the start of treatment, shortly before and during coronary ligature, 10 minutes after coronary ligature had been effected, and--after renewed ether anaesthesia-- between the 2nd and 4th hour after coronary occlusion. Each time, the animals were superficially anaesthetized again with ether when the ECG was recorded. At the end of the treatment period, a last ECG was recorded shortly before the animals were sacrificed. […]

[2] = system: coronary arteries of dogs; details: cited from earlier work
[3] = group II, after-treatment 30 mg/kg, 2 × daily, 15 animals
[4] = group II, after-treatment 30 mg/kg, 2 × daily, 9 animals
[5] = group II, after-treatment 100 mg/kg, 2 × daily, 18 animals
[6] = group III, pre-treatment 30 mg/kg, 10 days, 12 animals
[7] = group III, pre-treatment 30 mg/kg, 10 days, 10 animals
[8] = group III, pre-treatment 100 mg/kg, 10 days, 16 animals
[9] = group III, pre-treatment 100 mg/kg, 10 days, 11 animals

Structure (SMILES): CC1=NN(CCOc2ccc3ccccc3c2)C(=O)C1 [nafazatrom, 3-methyl-1-[2-(2-naphthyloxy)-ethyl]-2-pyrazolin-5-one]
- inhibition of 5-lipoxygenase (5-lipoxygenase): selectively inhibits
- inhibition of 12-lipoxygenase (12-lipoxygenase): not inhibited
- irregularities in comparison with the control animals ([1]; early (0-10 minutes) and late phase (2-4 hours)): significantly fewer irregularities
- Duration of VF (seconds), early [1, 3]: 65 s
- Duration of VT (seconds), early [1, 3]: 72 s
- Extrasystoles %, early [1, 3]: 94%
- Duration of VF (seconds), late [1, 4]: 0 s
- Duration of VT (seconds), late [1, 4]: 4 s
- Extrasystoles %, late [1, 4]: 6%
- Duration of VF (seconds), early [1, 5]: 68 s
- Duration of VT (seconds), early [1, 5]: 60 s
- Extrasystoles %, early [1, 5]: 90%
- Duration of VF (seconds), late [1, 5]: 0 s
- Duration of VT (seconds), late [1, 5]: 0 s
- Extrasystoles %, late [1, 5]: 0%
- Duration of VF (seconds), early [1, 6]: 5 s
- Duration of VT (seconds), early [1, 6]: 9 s
- Extrasystoles %, early [1, 6]: 34%
- Duration of VF (seconds), late [1, 7]: 11 s
- Duration of VT (seconds), late [1, 7]: 10 s
- Extrasystoles %, late [1, 7]: 25%
- Duration of VF (seconds), early [1, 8]: 0 s
- Duration of VT (seconds), early [1, 8]: 13 s
- Extrasystoles %, early [1, 8]: 25%
- Duration of VF (seconds), late [1, 9]: 6 s
- Duration of VT (seconds), late [1, 9]: 10 s
- Extrasystoles %, late [1, 9]: 4%
- prevention of rhythm disorders ([1]; pre-treatment of 100 mg/kg): prevent almost all the rhythm disorders
- antithrombotic effectiveness [2]: also effective in the coronary arteries of dogs
